Assay results as given in ChEMBL document CHEMBL1641553, “Antimalarials based on the dioxane scaffold of plakortin. A concise synthesis and SAR studies” (Bioorg Med Chem, 2011).

Key:
Plasmodium falciparum [1] = test: Antimalarial activity against chloroquine-sensitive Plasmodium falciparum D10 infected in human A-positive red blood cells after 72 hrs by lactate dehydrogenase assay; assay type: functional, organism-based; details: D10, 72 h
Plasmodium falciparum [2] = test: Antimalarial activity against chloroquine-resistant Plasmodium falciparum W2 infected in human A-positive red blood cells after 72 hrs by lactate dehydrogenase assay; assay type: functional, organism-based; details: W2, 72 h

SMILES | IC50 (Plasmodium falciparum [1]) | IC50 (Plasmodium falciparum [2])
CCCCC[C@@H]1OO[C@H](CC(=O)OCC)[C@@H](Br)[C@@H]1Br | 8.15 µM | 5.11 µM
CCCCC[C@@H]1OO[C@H](CC(=O)OCC)[C@@H](O)[C@H]1O | > 30 µM | > 30 µM
CCCCC[C@H]1C=C[C@@H](CC(=O)OCC)OO1 | 1.2 µM | 1.49 µM
CCCCC[C@H]1C=C[C@@H](CCOC(C)=O)OO1 | 21.9 µM | 12.5 µM
CCCCC[C@H]1C=C[C@@H](CCO)OO1 | > 30 µM | > 30 µM
CCCCCC/C=C/C=O [2-NONENAL] | 0.87 µM | 0.39 µM
CCCCC[C@H](O)/C=C\[C@@H](CC(=O)OCC)OCCCC | > 30 µM | > 30 µM
CCCCC[C@@H]1OO[C@H](CC(=O)OCC)[C@H](Br)[C@H]1Br | 9.12 µM | 5.65 µM
CCCCCC/C=C/C=C/C(=O)OCC | 0.9 µM | 0.43 µM
CCCCC[C@H]1C=C[C@@H](CC(=O)O)OO1 | 3.33 µM | 3.42 µM
CCCCC[C@@H]1OO[C@H](CC(=O)OCC)[C@H]2O[C@H]21 | 22.1 µM | 10.3 µM
CCCCC[C@@H]1OO[C@H](CC(=O)OCC)[C@@H]2O[C@@H]21 | > 30 µM | > 30 µM
